From patent US20080226718A1, “Indole and Azaindole Derivatives For the Treatment of Inflammatory and Autoimmune Diseases” (Brane Discovery S.r.l, priority 2005, published 2008)

Columns and labels:
lymphocytes [1] = assay: Chemotaxis assay, lymphocytes (MIP-3β); type: cell-based; conditions: Homo sapiens, Lymphocyte, MIP-3β 100 nM, 4 h; for inhibition at 10 µM: [cpd] 10 μM, read-out: Inhibition of Chemotaxis (%) Lymphocytes (MIP3-β); for inhibition at 25 µM: [cpd] 25 μM; for inhibition at 25 µM / inhibition at 50 µM: read-out: Inhibition of Chemotaxis (%) Lymphocytes (MIP3-β) (converted); for inhibition at 50 µM: [cpd] 50 μM
Procedure: (§1) PMNs and monocytes migration was assessed using 1 or 3-μm pore size transwells (Bio-Coat Becton-Dickinson), while lymphocytes by using 5-elm pore size transwells.
(§2) Cells were in RPMI1640, containing 10% heat-inactivated Fetal Calf Serum (FCS) and 20 mM HEPES, pH 7.3, at 2×10^6/ml. 100 μl of cell suspension were added to the top well, and 600 μl of medium, containing chemoattractants and test compound, were added to the bottom well. Migration was evaluated after 2 h for PMNs and monocytes and after 4 h for lymphocytes. fMLP 10 nM (PMNs and monocytes) and MIP-3β 100 nM (lymphocytes) were utilized as chemoattractants. After fixation with 1.5% glutaraldehyde, migrated cells were counted by fluorescence-activated celli sorting using polystyrene beads (Polyscience) as an internal standard (Campbell J. J. et al. J. Cell. Biol. 134, 255-266, 1996; Laudanna C. et al. J. Biol. Chem. 273,46, 30306-30315, 1998).
(§3) Results are expressed as percentage of inhibition over control (=100%), and are the mean of three experiments.

[2] = system: encephalitogenic lymphocytes; assay: Chemokine-induced adhesion of murine encephalitogenic T cells to ICAM-1; type: cell-based, SJL mice; conditions: ICAM-1; for Chemokine-induced Adhesion in encephalitogenic lymphocytes, Mean counts ± S.D., in presence of MIP3-β stimulation: 1 μM CCL19 (MIP-3beta)
Procedure: (§4) Adhesion was performed on purified integrin ligands and was evaluated as reported in Constantin G. et al., Immunity, 16, 759-769, 2000. Briefly, primary naïve lymphocytes, polymorphonuclear neutrophils (PMNs) or monocytes were isolated form healthy donors. In other experiments, murine autoreactive T cells were obtained from SJL mice immunized with PLP139-151 as described (Piccio L. et al., J. Immunol, 168, 1940-1949, 2002). Cells were resuspended at 4×10^6/ml in PBS, CaCl2, MgCl2 1 mM, 10% FCS, pH 7.2. Adhesion assays were performed on eighteen well glass slides coated overnight at 4° C. with ligands for CR3 (fibrinogen) or LFA-1 (ICAM-1). 20 μl of cell suspension were added to the wells and stimulated at 37° C. with 5 μl of agonists prior to washing, fixation and computer-assisted enumeration of bound cells.
(§5) Integrin activation was measured as induction of rapid adhesion triggered by the classical chemoattractant N-formyl-L-methionyl-L-leucyl-phenylalanine (fMLP) (100 nM) or by the CC chemokine MIP3β (CCL19, 1 μM). PMNs and monocytes were triggered to adhere to fibrinogen (CR3 ligand); naive human lymphocytes or murine encephalitogenic T cells were triggered to adhere to ICAM-1 (LFA-1 ligand). Triggered adhesion was evaluated after 2 min of stimulation under static conditions. The cells were pretreated at 37° C. for 30-60 min with the indicated concentrations of the test compound. Results are expressed as percentage of inhibition over control (=100%) and are the mean of three experiments in the case of human leukocytes. Results are expressed as mean counts and are the mean counts ±S.D of three experiments and are the mean of three experiments in the case of murine encephalitogenic lymphocytes.
Chemokines trigger rapid arrest of lymphocytes in blood vessels through pertussis toxin-sensitive G protein coupled receptors. Rapid adhesion to purified ICAM-1 was measured in in vitro adhesion assays using control/untreated cells and lymphocytes treated with concentration between 5-50 μM for 1 h. Autoreactive lymphocytes were then stimulated with 1 μM CCL19 (MIP-3beta) for 3 min. […] These compounds were already efficient in blocking adhesion using a concentration of 5 μM for the cell treatment.

monocytes [3] = assay: Chemokine-induced rapid adhesion of monocytes to fibrinogen (fMLP); type: cell-based; conditions: Homo sapiens, Monocyte, fMLP 100 nM; for inhibition at 10 µM: [cpd] 10 μM; for inhibition at 25 µM: [cpd] 25 μM; for inhibition at 50 µM: [cpd] 50 μM
Procedure: as §4, §5

lymphocytes [4] = assay: Chemokine-induced rapid adhesion of lymphocytes to ICAM-1 (MIP3β); type: cell-based; conditions: Homo sapiens, Lymphocyte, MIP3β 1 μM; for inhibition at 10 µM: [cpd] 10 μM, read-out: Inhibition of Adhesion (%) Lymphocytes (MIP3-β); for inhibition at 25 µM: [cpd] 25 μM; for inhibition at 25 µM / inhibition at 50 µM: read-out: Inhibition of Adhesion (%) Lymphocytes (MIP3-β) (converted); for inhibition at 50 µM: [cpd] 50 μM
Procedure: as §4, §5
(§6) Integrin activation was measured as induction of rapid adhesion triggered by the “classical” chemoattractant fMLP (100 nM) or by the CC chemokine MIP3β (CCL19, 1 μM). PMNs were triggered to adhere to fibrinogen (CR3 ligand); lymphocytes were triggered to adhere to ICAM-1 (LFA-1 ligand).

[5] = system: encephalitogenic lymphocytes; assay: Spontaneous adhesion of encephalitogenic T cells on purified ICAM-1; type: cell-based, SJL mice; conditions: Mus musculus, Lymphocyte, 1 h; for inhibition at 5 µM: [cpd] 5 μM, read-out: Inhibition of Spontaneous Adhesion in encephalitogenic lymphocytes (% of control/non-treated cells) ICAM-1; for inhibition at 10 µM: [cpd] 10 μM; for inhibition at 10 µM / inhibition at 50 µM: read-out: Inhibition of Spontaneous Adhesion in encephalitogenic lymphocytes (% of control/non-treated cells) ICAM-1 (converted); for inhibition at 50 µM: [cpd] 50 μM
Procedure: Spontaneous adhesion of encephalitogenic lymphocytes was measured in adhesion assays on purified ICAM-1 and VCAM-1 as previously described (Constantin G. et al., J. Immunol. 162, 1144-1149, 1999). Autoreactive T cells were obtained from SJL mice immunized with PLP139-151 as described (Piccio L. et al., J. Immunol. 168, 1940-1949, 2002). Lymphocytes were treated with test compound at concentrations between 5-100 μM for 1 h, while control/untreated cells were treated with vehicle (DMSO). Results are expressed as percentage of inhibition over control (=100%) ±S.D and are the mean of three-four experiments.
ICAM-1 and VCAM-1 are adhesion molecules from the family of immunoglobulins and control the migration of lymphocytes through the endothelium during inflammatory responses. Encephalitogenic T cells are activated lymphocytes displaying spontaneous adhesion on ICAM-1 and VCAM-1 and have increased migration capacities in inflammation sites. Spontaneous adhesion of encephalitogenic lymphocytes was measured in adhesion assays on purified ICAM-1 and VCAM-1 as described in the method.

PMNs [6] = assay: Chemotaxis assay, PMNs (fMLP); type: cell-based; conditions: Homo sapiens, fMLP 10 nM, 2 h; for inhibition at 10 µM: [cpd] 10 μM; for inhibition at 25 µM: [cpd] 25 μM; for inhibition at 50 µM: [cpd] 50 μM
Procedure: as §1, §2, §3

PMNs [7] = assay: Chemokine-induced rapid adhesion of PMNs to fibrinogen (fMLP); type: cell-based; conditions: Homo sapiens, 2 min, fMLP 100 nM; for inhibition at 10 µM: [cpd] 10 μM; for inhibition at 25 µM: [cpd] 25 μM; for inhibition at 50 µM: [cpd] 50 μM
Procedure: as §4, §5, §6

monocytes [8] = assay: Chemotaxis assay, monocytes (fMLP); type: cell-based; conditions: Homo sapiens, Monocyte, fMLP 10 nM, 2 h; for inhibition at 10 µM: [cpd] 10 μM; for inhibition at 25 µM: [cpd] 25 μM; for inhibition at 50 µM: [cpd] 50 μM
Procedure: as §1, §2, §3

| Structure (SMILES) | inhibition at 10 µM (lymphocytes [1]) | inhibition at 25 µM (lymphocytes [1]) | inhibition at 50 µM (lymphocytes [1]) | inhibition at 10 µM (monocytes [3]) | inhibition at 25 µM (monocytes [3]) | inhibition at 50 µM (monocytes [3]) | inhibition at 10 µM (lymphocytes [4]) | inhibition at 25 µM (lymphocytes [4]) | inhibition at 50 µM (lymphocytes [4]) | inhibition at 5 µM [5] | inhibition at 10 µM [5] | inhibition at 50 µM [5] | inhibition at 10 µM (PMNs [6]) | inhibition at 25 µM (PMNs [6]) | inhibition at 50 µM (PMNs [6]) | inhibition at 10 µM (PMNs [7]) | inhibition at 25 µM (PMNs [7]) | inhibition at 50 µM (PMNs [7]) | inhibition at 10 µM (monocytes [8]) | inhibition at 25 µM (monocytes [8]) | further results |
| --- | --- | --- | --- | --- | --- | --- | --- | --- | --- | --- | --- | --- | --- | --- | --- | --- | --- | --- | --- | --- | --- |
| COc1cc2[nH]c(-c3nnc[nH]3)c(-c3ccccc3)c2cc1OC [Example 58] | 49.3% | 82.9% | 92.2% | 6.8% | 10.6% | 16.6% | 92.1% | 93.9% | 94.7% | 40.7% | 49.5% | 95.6% | 53.9% | 87.5% | 97.9% | 33.1% | 45% | 61.4% | 51.7% | 87.5% | Chemokine-induced Adhesion in encephalitogenic lymphocytes, Mean counts ± S.D., in presence of MIP3-β stimulation ([2]; [cpd] 10 μM): 73.2 ± 5.5; Adhesion in encephalitogenic lymphocytes, Mean counts ± S.D., in absence of MIP3-β stimulation ([2]; [cpd] 10 μM): 48.7 ± 6.5; Chemokine-induced Adhesion in encephalitogenic lymphocytes, Mean counts ± S.D., in presence of MIP3-β stimulation ([2]; [cpd] 50 μM): 46.8 ± 4.7; Adhesion in encephalitogenic lymphocytes, Mean counts ± S.D., in absence of MIP3-β stimulation ([2]; [cpd] 50 μM): 19.8 ± 5.8; inhibition at 50 µM (monocytes [8]): 97.8% |
| CCOC(=O)CCc1[nH]c2cc(OC)c(OC)cc2c1-c1ccc(OC)cc1 [Example 22] | 47.9% | 84.6% | 94.7% | 9.5% | 29.6% | 42.6% | 65% | 95.6% | 97.1% | 39.9% | 61.3% | 94.7% | 56.9% | 88.7% | 97.8% | 2.6% | 13.8% | 32.6% | 23.7% | 80.1% | Chemokine-induced Adhesion in encephalitogenic lymphocytes, Mean counts ± S.D., in presence of MIP3-β stimulation ([2]; [cpd] 10 μM): 74.1 ± 6.4; Adhesion in encephalitogenic lymphocytes, Mean counts ± S.D., in absence of MIP3-β stimulation ([2]; [cpd] 10 μM): 44.2 ± 5.7; Chemokine-induced Adhesion in encephalitogenic lymphocytes, Mean counts ± S.D., in presence of MIP3-β stimulation ([2]; [cpd] 50 μM): 48.0 ± 6.4; inhibition at 50 µM (monocytes [8]): 96.4% |
| CNC(=O)c1[nH]c2cc(OC)c(OC)cc2c1-c1ccccc1 [Example 48] | 48.9% | 77.3% | 94.9% | 7.5% | 22.5% | 31.7% | 53.7% | 77.3% | 91.5% | 37.5% | 65.6% | 95.6% | 82.4% | 87.8% | 96.4% | 18% | 48.9% | 53.7% | 71.7% | 90.4% | inhibition at 50 µM (monocytes [8]): 96.5% |
| COc1ccc(-c2c(C#N)n(CCCN(C)C)c3cc(OC)c(OC)cc23)cc1 [Example 55] | 43.7% | 84.2% | 91.2% | 7.7% | 38.5% | 97.9% | 80% | 91.9% | 97% | 7.6% | 12.4% | 96.4% | 79.4% | 94.2% | 96.8% | 8.4% | 19% | 27.4% | 54.6% | 89.2% | Chemokine-induced Adhesion in encephalitogenic lymphocytes, Mean counts ± S.D., in presence of MIP3-β stimulation ([2]; [cpd] 10 μM): 98.3 ± 13.7; Adhesion in encephalitogenic lymphocytes, Mean counts ± S.D., in absence of MIP3-β stimulation ([2]; [cpd] 10 μM): 53.5 ± 3.5; Chemokine-induced Adhesion in encephalitogenic lymphocytes, Mean counts ± S.D., in presence of MIP3-β stimulation ([2]; [cpd] 50 μM): 46.9 ± 6.2; Adhesion in encephalitogenic lymphocytes, Mean counts ± S.D., in absence of MIP3-β stimulation ([2]; [cpd] 50 μM): 13.2 ± 3.7; inhibition at 50 µM (monocytes [8]): 92.9% |
